From US20230348424A1, “HETEROCYCLIC COMPOUNDS AND METHODS OF USE” (Schrödinger, Inc., priority 2022, published 2023)

Molecular target: SOS1:KRAS (G12C) interaction (Homo sapiens (Human), UniProt Q07889)
Assay: SOS1 KRas(G12C) FRET Assay
Assay type: binding
Details: 0.5 nM His10-SOS1 (res. 564-1049), 2.5 nM GST-KRAS G12C (res. 1-169), 2 hrs at RT
Experimental: Inhibition of the SOS 1:KRAS interaction was measured using purified GST-tagged KRAS (res. 1-169, G12C, purified based on Hillig, et al., Proc Natl Acad Sci USA (2019); 116(7):2551-2560) and recombinant His10-SOS1 (res. 564-1049; purified based on Hillig, et al.). The final assay was performed at 20 uL with 0.5 nM SOS1 protein and 2.5 nM KRAS protein in a buffer of PBS, 0.1% BSA, 5 mM MgCh, 0.0025% Igepal, 100 mM KF, 5 mM DTT in a white 384 square well OptiPlate (PerkinElmer, Cat. 6007290). A 2x KRAS working solution was prepared in an assay buffer containing 5 nM GST-KRAS G12C and 2 nM anti-GST-Eu(K) (Cisbio, Cat. 61GSTKLA) and pre-incubated for 15 minutes at 25° C. […] The final DMSO concentration is 0.5%. Plates were incubated at RT for 2 hrs before the FRET signal was measured using Envision at emission 665 nm and 615 nm. FRET signal was converted to percentage of protein-protein interaction using the following equation:
• C: signal with compound treatment • P: signal for positive control (DMSO) • N: signal for negative control (no SOS1 added)
IC50 and Hill coefficients were obtained using Graph Pad Prism (Graph Pad software, Inc, USA) with non-linear regression analysis.

SOS1:KRAS (G12C) interaction, sequence (Q07889 564-1049, stated change not applied): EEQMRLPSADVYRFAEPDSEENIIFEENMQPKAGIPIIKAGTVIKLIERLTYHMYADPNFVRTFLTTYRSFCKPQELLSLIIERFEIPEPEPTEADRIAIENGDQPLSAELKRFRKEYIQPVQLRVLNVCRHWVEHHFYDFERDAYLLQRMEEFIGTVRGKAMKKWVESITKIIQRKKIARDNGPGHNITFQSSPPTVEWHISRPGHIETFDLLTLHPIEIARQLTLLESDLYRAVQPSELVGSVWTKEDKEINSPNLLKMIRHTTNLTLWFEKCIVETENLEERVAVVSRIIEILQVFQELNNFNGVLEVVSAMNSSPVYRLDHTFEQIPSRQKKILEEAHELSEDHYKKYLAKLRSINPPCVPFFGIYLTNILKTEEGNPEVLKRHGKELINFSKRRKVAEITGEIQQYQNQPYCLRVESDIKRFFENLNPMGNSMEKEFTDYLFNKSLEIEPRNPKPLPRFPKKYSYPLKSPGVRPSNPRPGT

IC50 [nM]	SMILES
20.8	Cc1c([C@@H](C)NC(=O)c2cn(C3CCOCC3)c(=O)cc2NC2CCCn3cncc32)cccc1C(F)(F)F (stereo partly drawn) [Example 300, N-((R)-1-(2-methyl-3-(trifluoromethyl)phenyl)ethyl)-6-oxo-1-(tetrahydro-2H-pyran-4-yl)-4-((5,6,7,8-tetrahydroimidazo[1,5-a]pyridin-8-yl)amino)-1,6-dihydropyridine-3-carboxamide]
22.7	C[C@@H](NC(=O)c1cn(C2(C(F)F)CC2)c(=O)cc1N[C@H]1C[C@@H](N(C)C)C1)c1cccc(C(F)F)c1F [Example 229, N-((R)-1-(3-(difluoromethyl)-2-fluorophenyl)ethyl)-1-(1-(difluoromethyl)cyclopropyl)-4-(((1s,3S)-3-(dimethylamino)cyclobutyl)amino)-6-oxo-1,6-dihydropyridine-3-carboxamide]
19.5	C[C@@H](NC(=O)c1cn([C@H]2CC2(F)F)c(=O)cc1N[C@H]1[C@@H]2CN(C)C[C@@H]21)c1cccc(C(C)(F)F)c1F (single isomer, unassigned) [Example 202]
18.2	C[C@@H](NC(=O)c1cn(C2(C(F)F)CC2)c(=O)cc1N[C@@H]1CCN2CCC[C@H]2C1)c1cccc(C(F)F)c1F (single isomer, unassigned) [Example 303]
37.6	Cc1c([C@@H](C)NC(=O)c2cn(C3CCOCC3)c(=O)cc2NCC23CCCN2CCC3)cccc1C(F)(F)F [Example 11, (R)-N-(1-(2-methyl-3-(trifluoromethyl)phenyl)ethyl)-6-oxo-4-(((tetrahydro-1H-pyrrolizin-7a(5H)-yl)methyl)amino)-1-(tetrahydro-2H-pyran-4-yl)-1,6-dihydropyridine-3-carboxamide]
4.8	C[C@@H](NC(=O)c1cn([C@]2(C(F)(F)F)CCOC2)c(=O)cc1NC1CCN(C)CC1)c1cccc(C(F)F)c1F [Example 233, N-((R)-1-(3-(difluoromethyl)-2-fluorophenyl)ethyl)-4-((1-methylpiperidin-4-yl)amino)-6-oxo-1-((R)-3-(trifluoromethyl)tetrahydrofuran-3-yl)-1,6-dihydropyridine-3-carboxamide]
17.9	C[C@@H](NC(=O)c1cn([C@H]2CCOC(C)(C)C2)c(=O)cc1NC1CCN(C)CC1)c1cccc(C(F)F)c1F (single isomer, unassigned) [Example 308]
21.9	C[C@@H](NC(=O)c1cn(C2(C(C)(F)F)CC2)c(=O)cc1NC1CCN(C)CC1)c1cccc(C(F)F)c1F [Example 230, (R)-1-(1-(1,1-difluoroethyl)cyclopropyl)-N-(1-(3-(difluoromethyl)-2-fluorophenyl)ethyl)-4-((1-methylpiperidin-4-yl)amino)-6-oxo-1,6-dihydropyridine-3-carboxamide]
33.8	C[C@@H](NC(=O)c1cn(C2(C(F)F)CC2)c(=O)cc1NCC12CC(O)(C1)C2)c1cccc(C(F)F)c1F [Example 182, (R)-N-(1-(3-(difluoromethyl)-2-fluorophenyl)ethyl)-1-(1-(difluoromethyl)cyclopropyl)-4-(((3-hydroxybicyclo[1.1.1]pentan-1-yl)methyl)amino)-6-oxo-1,6-dihydropyridine-3-carboxamide]
20.1	C[C@@H](NC(=O)c1cn(C2(C(F)F)CC2)c(=O)cc1NC1CCN(C2CC2)CC1)c1cccc(C(F)F)c1F [Example 62, (R)-4-((1-cyclopropylpiperidin-4-yl)amino)-N-(1-(3-(difluoromethyl)-2-fluorophenyl)ethyl)-1-(1-(difluoromethyl)cyclopropyl)-6-oxo-1,6-dihydropyridine-3-carboxamide]
12.5	C[C@@H](NC(=O)c1cn(C2(C(F)F)CCC2)c(=O)cc1NC1CCN(C)CC1)c1cccc(C(F)F)c1F [Example 76, (R)-N-(1-(3-(difluoromethyl)-2-fluorophenyl)ethyl)-1-(1-(difluoromethyl)cyclobutyl)-4-((1-methylpiperidin-4-yl)amino)-6-oxo-1,6-dihydropyridine-3-carboxamide]
18.4	C[C@@H](NC(=O)c1cn(C2(C(F)F)CC2)c(=O)cc1N[C@@H]1[C@@H]2CC[C@H]1CNC2)c1cccc(C(F)F)c1F (single isomer, unassigned) [Example 281]
41.4	C[C@@H](NC(=O)c1cn(C2(CF)CC2)c(=O)cc1N[C@@H]1[C@@H]2CC[C@H]1CN(C)C2)c1cccc(C(F)F)c1F (single isomer, unassigned) [Example 261]
21.4	C[C@@H](NC(=O)c1cn(C23CC(C2)C3)c(=O)cc1N[C@H]1[C@@H]2CN(C)C[C@@H]21)c1cccc(C(F)(F)F)c1 [Example 160, 1-(bicyclo[1.1.1]pentan-1-yl)-4-(((1R,5S,6s)-3-methyl-3-azabicyclo[3.1.0]hexan-6-yl)amino)-6-oxo-N-((R)-1-(3-(trifluoromethyl)phenyl)ethyl)-1,6-dihydropyridine-3-carboxamide]
31.5	CC(C)N1C[C@@H]2[C@H](C1)[C@H]2Nc1cc(=O)n(C2(C(F)F)CC2)cc1C(=O)N[C@H](C)c1cccc(C(F)F)c1F [Example 59, N-((R)-1-(3-(difluoromethyl)-2-fluorophenyl)ethyl)-1-(1-(difluoromethyl)cyclopropyl)-4-(((1R,5S,6s)-3-isopropyl-3-azabicyclo[3.1.0]hexan-6-yl)amino)-6-oxo-1,6-dihydropyridine-3-carboxamide]
13.9	C[C@@H](NC(=O)c1cn([C@@H]2CCC2(F)F)c(=O)cc1N[C@H]1[C@@H]2CN(C)C[C@@H]21)c1cccc(C(F)(F)F)c1 (single isomer, unassigned) [Example 256]
13.7	C[C@@H](NC(=O)c1cn(C2(CF)CC2)c(=O)cc1NC1CCN(C)CC1)c1cccc(C(F)F)c1F [Example 77, (R)-N-(1-(3-(difluoromethyl)-2-fluorophenyl)ethyl)-1-(1-(fluoromethyl)cyclopropyl)-4-((1-methylpiperidin-4-yl)amino)-6-oxo-1,6-dihydropyridine-3-carboxamide]
15.6	C[C@@H](NC(=O)c1cn(C2(C(F)F)CC2)c(=O)cc1NC1CCN(C)CC1)c1cccc2c1OCC2(F)F [Example 53, (R)-N-(1-(3,3-difluoro-2,3-dihydrobenzofuran-7-yl)ethyl)-1-(1-(difluoromethyl)cyclopropyl)-4-((1-methylpiperidin-4-yl)amino)-6-oxo-1,6-dihydropyridine-3-carboxamide]
11.7	C[C@@H](NC(=O)c1cn([C@@H]2CCOC(C)(C)C2)c(=O)cc1N[C@H]1[C@@H]2CN(C)C[C@@H]21)c1cccc(C(F)F)c1F [Example 309, N-((R)-1-(3-(difluoromethyl)-2-fluorophenyl)ethyl)-1-((R)-2,2-dimethyltetrahydro-2H-pyran-4-yl)-4-(((1R,5S,6s)-3-methyl-3-azabicyclo[3.1.0]hexan-6-yl)amino)-6-oxo-1,6-dihydropyridine-3-carboxamide]
37.2	C[C@@H](NC(=O)c1cn([C@H]2CCOC(C)(C)C2)c(=O)cc1N[C@H]1[C@@H]2CN(C)C[C@@H]21)c1cccc(C(F)F)c1F [Example 310, N-((R)-1-(3-(difluoromethyl)-2-fluorophenyl)ethyl)-1-((S)-2,2-dimethyltetrahydro-2H-pyran-4-yl)-4-(((1R,5S,6s)-3-methyl-3-azabicyclo[3.1.0]hexan-6-yl)amino)-6-oxo-1,6-dihydropyridine-3-carboxamide]
2.2	CC(=O)N1CCC(C)(n2cc(C(=O)N[C@H](C)c3cccc(C(F)F)c3F)c(NC3CCN(C)CC3)cc2=O)C1 (stereo partly drawn) [Example 264, 1-(1-acetyl-3-methylpyrrolidin-3-yl)-N-((R)-1-(3-(difluoromethyl)-2-fluorophenyl)ethyl)-4-((1-methylpiperidin-4-yl)amino)-6-oxo-1,6-dihydropyridine-3-carboxamide]
6.3	C[C@@H](NC(=O)c1cn([C@@H]2CCOC[C@H]2F)c(=O)cc1N[C@H]1[C@@H]2C[C@H]1CN(C)C2)c1cccc(C(F)F)c1F [Example 243, N-((R)-1-(3-(difluoromethyl)-2-fluorophenyl)ethyl)-1-((3S,4R)-3-fluorotetrahydro-2H-pyran-4-yl)-4-(((1R,5Sx,6r)-3-methyl-3-azabicyclo[3.1.1]heptan-6-yl)amino)-6-oxo-1,6-dihydropyridine-3-carboxamide]
27	C[C@@H](NC(=O)c1cn([C@H]2CC23CC3)c(=O)cc1N[C@H]1[C@@H]2CN(C)C[C@@H]21)c1cccc(C(C)(F)F)c1F (single isomer, unassigned) [Example 255]
9.46	C[C@@H](NC(=O)c1cn(C2(C(F)F)CC2)c(=O)cc1N[C@H]1CCNC2(CC2)C1)c1cccc(C(F)F)c1F (single isomer, unassigned) [Example 277]

SMILES	IC50 [nM]
CCC12CC(n3cc(C(=O)N[C@H](C)c4cccc(C(F)F)c4F)c(NC4[C@H]5CN(C)C[C@@H]45)cc3=O)(C1)C2 (stereo partly drawn) [Example 313, N-((R)-1-(3-(difluoromethyl)-2-fluorophenyl)ethyl)-1-(3-ethylbicyclo[1.1.1]pentan-1-yl)-4-(((1R,5S,6s)-3-methyl-3-azabicyclo[3.1.0]hexan-6-yl)amino)-6-oxo-1,6-dihydropyridine-3-carboxamide]	10.5
